Three compounds from the kinase profiling compilation of Christmann-Franck et al. (2016) can be followed below.

The term residual activity denotes the signal under treatment as a percentage of the control signal.

PLK1 (human), sequence (P53350 whole entry, looked up): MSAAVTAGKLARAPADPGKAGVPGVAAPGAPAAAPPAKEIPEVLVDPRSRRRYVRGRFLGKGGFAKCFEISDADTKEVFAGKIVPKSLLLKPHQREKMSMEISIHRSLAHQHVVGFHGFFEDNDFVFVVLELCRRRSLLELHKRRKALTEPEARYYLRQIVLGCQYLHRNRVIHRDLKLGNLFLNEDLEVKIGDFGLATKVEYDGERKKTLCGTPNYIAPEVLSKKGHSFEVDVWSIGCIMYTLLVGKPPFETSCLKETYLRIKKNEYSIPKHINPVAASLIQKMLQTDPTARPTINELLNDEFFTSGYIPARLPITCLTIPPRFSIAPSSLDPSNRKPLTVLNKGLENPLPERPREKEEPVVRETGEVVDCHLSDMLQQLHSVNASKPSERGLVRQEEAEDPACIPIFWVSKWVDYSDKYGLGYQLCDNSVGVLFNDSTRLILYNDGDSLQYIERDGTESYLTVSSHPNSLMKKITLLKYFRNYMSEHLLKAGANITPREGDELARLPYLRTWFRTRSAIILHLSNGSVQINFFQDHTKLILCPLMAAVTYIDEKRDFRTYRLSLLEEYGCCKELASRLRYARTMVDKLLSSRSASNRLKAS
MAPKAPK5 (human), sequence (Q8IW41 whole entry, looked up): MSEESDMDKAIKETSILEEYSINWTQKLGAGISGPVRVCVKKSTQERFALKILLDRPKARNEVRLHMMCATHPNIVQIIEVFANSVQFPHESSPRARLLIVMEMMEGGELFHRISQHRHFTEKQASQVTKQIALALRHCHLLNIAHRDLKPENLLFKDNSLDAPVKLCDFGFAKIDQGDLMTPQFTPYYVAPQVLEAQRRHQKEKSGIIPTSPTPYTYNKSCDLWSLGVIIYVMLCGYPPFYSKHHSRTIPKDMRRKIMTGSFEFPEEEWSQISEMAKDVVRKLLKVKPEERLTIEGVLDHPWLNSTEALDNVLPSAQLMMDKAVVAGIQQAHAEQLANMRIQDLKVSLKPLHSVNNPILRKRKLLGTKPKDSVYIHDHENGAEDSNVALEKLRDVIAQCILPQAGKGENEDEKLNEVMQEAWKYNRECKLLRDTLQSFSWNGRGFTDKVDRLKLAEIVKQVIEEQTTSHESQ
NLK (human), sequence (Q9UBE8 whole entry, looked up): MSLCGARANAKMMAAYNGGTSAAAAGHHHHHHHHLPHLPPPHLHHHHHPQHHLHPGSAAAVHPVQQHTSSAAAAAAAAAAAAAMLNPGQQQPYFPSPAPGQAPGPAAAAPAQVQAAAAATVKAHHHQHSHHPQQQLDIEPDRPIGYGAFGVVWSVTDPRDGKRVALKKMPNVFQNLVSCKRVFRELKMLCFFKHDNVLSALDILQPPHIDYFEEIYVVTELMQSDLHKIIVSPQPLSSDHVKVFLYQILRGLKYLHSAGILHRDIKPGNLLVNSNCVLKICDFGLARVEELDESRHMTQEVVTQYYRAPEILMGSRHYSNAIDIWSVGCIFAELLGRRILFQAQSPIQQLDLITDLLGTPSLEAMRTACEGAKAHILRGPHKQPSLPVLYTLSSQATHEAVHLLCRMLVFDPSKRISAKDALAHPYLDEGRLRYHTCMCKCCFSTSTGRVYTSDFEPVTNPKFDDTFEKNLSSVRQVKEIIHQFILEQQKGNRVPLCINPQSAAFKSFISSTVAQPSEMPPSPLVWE
LRRK2 (human), sequence (Q5S007 whole entry, looked up): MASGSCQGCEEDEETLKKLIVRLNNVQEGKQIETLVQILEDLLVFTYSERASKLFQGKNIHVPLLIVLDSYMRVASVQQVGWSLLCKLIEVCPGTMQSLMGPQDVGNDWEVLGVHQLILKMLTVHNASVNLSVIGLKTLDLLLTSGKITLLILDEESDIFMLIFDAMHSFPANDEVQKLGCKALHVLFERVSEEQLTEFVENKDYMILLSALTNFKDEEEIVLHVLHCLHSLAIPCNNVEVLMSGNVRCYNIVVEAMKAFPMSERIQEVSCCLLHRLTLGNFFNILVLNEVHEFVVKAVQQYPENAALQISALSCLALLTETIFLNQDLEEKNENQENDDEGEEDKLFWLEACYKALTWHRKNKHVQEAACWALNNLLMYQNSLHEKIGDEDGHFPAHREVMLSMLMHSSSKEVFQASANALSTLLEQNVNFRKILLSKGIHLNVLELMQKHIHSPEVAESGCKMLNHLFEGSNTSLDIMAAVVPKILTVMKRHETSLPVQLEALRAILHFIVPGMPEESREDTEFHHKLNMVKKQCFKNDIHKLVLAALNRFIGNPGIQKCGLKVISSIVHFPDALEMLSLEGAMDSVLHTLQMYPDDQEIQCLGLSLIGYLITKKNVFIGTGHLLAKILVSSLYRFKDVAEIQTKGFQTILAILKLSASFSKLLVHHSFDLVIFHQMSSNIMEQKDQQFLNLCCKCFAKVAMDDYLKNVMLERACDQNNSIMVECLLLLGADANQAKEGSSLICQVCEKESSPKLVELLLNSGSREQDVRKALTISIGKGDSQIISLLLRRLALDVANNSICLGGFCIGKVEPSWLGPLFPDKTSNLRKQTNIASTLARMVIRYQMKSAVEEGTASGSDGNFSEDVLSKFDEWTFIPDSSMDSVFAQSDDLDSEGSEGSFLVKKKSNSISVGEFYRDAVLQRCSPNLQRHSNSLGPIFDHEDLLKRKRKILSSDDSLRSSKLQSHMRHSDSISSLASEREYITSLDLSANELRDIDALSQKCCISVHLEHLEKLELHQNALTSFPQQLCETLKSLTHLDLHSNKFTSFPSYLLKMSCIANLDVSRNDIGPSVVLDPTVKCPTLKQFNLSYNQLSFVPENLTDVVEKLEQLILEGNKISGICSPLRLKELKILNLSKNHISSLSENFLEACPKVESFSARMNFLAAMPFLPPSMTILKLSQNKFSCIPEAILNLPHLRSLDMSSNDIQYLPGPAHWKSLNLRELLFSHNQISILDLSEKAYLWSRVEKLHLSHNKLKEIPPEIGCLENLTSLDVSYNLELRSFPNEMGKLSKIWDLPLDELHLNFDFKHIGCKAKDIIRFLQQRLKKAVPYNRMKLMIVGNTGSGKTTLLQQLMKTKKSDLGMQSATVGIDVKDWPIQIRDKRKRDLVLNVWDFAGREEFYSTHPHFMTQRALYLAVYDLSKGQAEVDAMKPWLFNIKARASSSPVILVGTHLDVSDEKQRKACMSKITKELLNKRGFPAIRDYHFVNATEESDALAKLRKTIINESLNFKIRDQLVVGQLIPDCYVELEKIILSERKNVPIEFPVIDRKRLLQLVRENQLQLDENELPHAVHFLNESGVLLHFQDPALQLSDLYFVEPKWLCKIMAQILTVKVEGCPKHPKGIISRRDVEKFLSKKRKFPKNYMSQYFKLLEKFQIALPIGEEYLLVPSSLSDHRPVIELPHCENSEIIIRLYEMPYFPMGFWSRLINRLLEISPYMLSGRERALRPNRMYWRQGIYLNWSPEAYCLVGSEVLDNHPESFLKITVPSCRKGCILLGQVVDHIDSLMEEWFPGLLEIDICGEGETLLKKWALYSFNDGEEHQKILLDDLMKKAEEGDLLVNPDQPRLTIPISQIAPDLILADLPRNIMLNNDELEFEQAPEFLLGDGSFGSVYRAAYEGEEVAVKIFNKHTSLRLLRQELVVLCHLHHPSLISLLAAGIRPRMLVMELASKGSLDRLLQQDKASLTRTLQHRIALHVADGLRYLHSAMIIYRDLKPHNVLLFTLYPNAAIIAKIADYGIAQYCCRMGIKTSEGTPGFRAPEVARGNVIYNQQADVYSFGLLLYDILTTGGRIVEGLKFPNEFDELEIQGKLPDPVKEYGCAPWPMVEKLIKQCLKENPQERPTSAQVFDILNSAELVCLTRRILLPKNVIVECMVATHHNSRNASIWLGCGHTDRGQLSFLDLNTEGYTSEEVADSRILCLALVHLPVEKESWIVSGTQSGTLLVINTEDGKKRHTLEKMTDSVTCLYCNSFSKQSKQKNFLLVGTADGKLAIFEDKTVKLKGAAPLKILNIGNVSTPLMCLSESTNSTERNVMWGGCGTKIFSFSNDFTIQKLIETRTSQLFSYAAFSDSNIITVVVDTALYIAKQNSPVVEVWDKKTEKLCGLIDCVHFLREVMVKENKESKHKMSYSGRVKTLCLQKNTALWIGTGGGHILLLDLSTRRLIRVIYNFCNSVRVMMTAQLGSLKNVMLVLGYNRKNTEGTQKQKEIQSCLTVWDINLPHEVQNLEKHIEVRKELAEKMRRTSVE

For one test, the target named is EGFR (human) (UniProt P00533). Briefly: radiometric filter-binding kinase assay, Kinase HotSpot. To be noted: compound 0.5 µM; ATP 10 µM.
For the compound `CCN(CC)CCCCN1c2ccccc2Oc2ccc(Cl)cc21`, the residual activity came out at 99.2%.
With `CC(=O)O/N=C1\C(=C2\C(=O)Nc3cc(Br)ccc32)Nc2ccccc21`, the residual activity came to 91.1%.
Same read-out and setting: next, `O=C(O)/C=C/c1cc(Br)c(Br)c(Br)c1Br`: 98.4%.

The next test has as its target PDPK1 (human) (UniProt O15530). The test is described as above. The note with it: compound 0.5 µM; ATP 10 µM.
For `CCN(CC)CCCCN1c2ccccc2Oc2ccc(Cl)cc21`, the residual activity is 111%.
As for `CC(=O)O/N=C1\C(=C2\C(=O)Nc3cc(Br)ccc32)Nc2ccccc21`, the residual activity worked out at 88.2%.
On to `O=C(O)/C=C/c1cc(Br)c(Br)c(Br)c1Br`, for which the residual activity amounted to 96.2%.

Another test has as its target PRKACA (human) (UniProt P17612). The description is as above. The note with it: compound 0.5 µM; ATP 10 µM.
`CCN(CC)CCCCN1c2ccccc2Oc2ccc(Cl)cc21`: the residual activity was 98.4%.
On to `CC(=O)O/N=C1\C(=C2\C(=O)Nc3cc(Br)ccc32)Nc2ccccc21`, for which the residual activity was 109%.
On to `O=C(O)/C=C/c1cc(Br)c(Br)c(Br)c1Br`, for which the residual activity stood at 98.4%.

For another test, the target named is TAOK3 (human) (UniProt Q9H2K8). Described as above. To be noted: compound 0.5 µM; ATP 10 µM.
In the case of `CCN(CC)CCCCN1c2ccccc2Oc2ccc(Cl)cc21`, the residual activity was 110%.
Take `CC(=O)O/N=C1\C(=C2\C(=O)Nc3cc(Br)ccc32)Nc2ccccc21`: the residual activity is 72.4%.
Turning to `O=C(O)/C=C/c1cc(Br)c(Br)c(Br)c1Br`, the residual activity was found to be 85.3%.

The target in another test is EPHB4 (human) (UniProt P54760). Described as above. To be noted: compound 0.5 µM; ATP 10 µM.
For the compound `CCN(CC)CCCCN1c2ccccc2Oc2ccc(Cl)cc21`, the residual activity came out at 97.9%.
In the case of `CC(=O)O/N=C1\C(=C2\C(=O)Nc3cc(Br)ccc32)Nc2ccccc21`, the residual activity came out at 92.2%.
In the case of `O=C(O)/C=C/c1cc(Br)c(Br)c(Br)c1Br`, the residual activity is 81.2%.

For another test, the target named is NTRK1 (human) (UniProt P04629). Described as above. The note with it: compound 0.5 µM; ATP 10 µM.
NTRK1 (human), sequence (P04629 whole entry, looked up): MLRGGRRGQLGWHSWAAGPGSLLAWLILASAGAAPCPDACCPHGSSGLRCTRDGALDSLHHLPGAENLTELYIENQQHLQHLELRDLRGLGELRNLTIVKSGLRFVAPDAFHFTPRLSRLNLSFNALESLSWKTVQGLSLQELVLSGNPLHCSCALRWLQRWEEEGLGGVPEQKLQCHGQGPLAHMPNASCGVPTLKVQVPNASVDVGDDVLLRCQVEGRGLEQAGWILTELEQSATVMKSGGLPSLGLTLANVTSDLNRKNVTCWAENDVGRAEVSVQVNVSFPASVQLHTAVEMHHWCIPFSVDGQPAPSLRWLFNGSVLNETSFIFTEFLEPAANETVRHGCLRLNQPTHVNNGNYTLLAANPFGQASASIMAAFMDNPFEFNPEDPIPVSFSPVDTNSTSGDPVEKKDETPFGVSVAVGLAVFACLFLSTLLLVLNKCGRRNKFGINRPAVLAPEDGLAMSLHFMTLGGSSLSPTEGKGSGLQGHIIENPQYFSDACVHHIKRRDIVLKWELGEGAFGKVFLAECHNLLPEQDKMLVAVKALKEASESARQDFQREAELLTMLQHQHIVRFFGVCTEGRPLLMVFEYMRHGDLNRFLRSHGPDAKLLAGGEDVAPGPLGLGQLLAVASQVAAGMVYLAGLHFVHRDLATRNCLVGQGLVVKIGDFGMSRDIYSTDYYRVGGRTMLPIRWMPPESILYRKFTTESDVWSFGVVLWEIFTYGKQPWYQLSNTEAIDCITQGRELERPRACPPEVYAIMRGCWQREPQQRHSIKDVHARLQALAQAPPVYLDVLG
Regarding `CCN(CC)CCCCN1c2ccccc2Oc2ccc(Cl)cc21`, the residual activity stood at 99.8%.
`CC(=O)O/N=C1\C(=C2\C(=O)Nc3cc(Br)ccc32)Nc2ccccc21`: the residual activity was found to be 54.7%.
Same read-out and setting: with `O=C(O)/C=C/c1cc(Br)c(Br)c(Br)c1Br` the figure was 91.1%.

A further test addresses RPS6KB2 (human) (UniProt Q9UBS0). Described as above. The note with it: compound 0.5 µM; ATP 10 µM.
For the compound `CCN(CC)CCCCN1c2ccccc2Oc2ccc(Cl)cc21`, the residual activity amounted to 107%.
As for `CC(=O)O/N=C1\C(=C2\C(=O)Nc3cc(Br)ccc32)Nc2ccccc21`, the residual activity came to 83.7%.
Consider `O=C(O)/C=C/c1cc(Br)c(Br)c(Br)c1Br`, for which the residual activity was 93.8%.

For a further test, the target named is GSK3A (human) (UniProt P49840). The test is described as above. The note with it: compound 0.5 µM; ATP 10 µM.
Take `CCN(CC)CCCCN1c2ccccc2Oc2ccc(Cl)cc21`: the residual activity stood at 108%.
As to `CC(=O)O/N=C1\C(=C2\C(=O)Nc3cc(Br)ccc32)Nc2ccccc21`, the residual activity is 6.49%.
Same read-out and setting: next, `O=C(O)/C=C/c1cc(Br)c(Br)c(Br)c1Br`: 91.5%.

A further test concerns the target PLK1 (human) (UniProt P53350). Described as above. To be noted: compound 0.5 µM; ATP 10 µM.
Consider `CCN(CC)CCCCN1c2ccccc2Oc2ccc(Cl)cc21`, for which the residual activity came out at 109%.
In the case of `CC(=O)O/N=C1\C(=C2\C(=O)Nc3cc(Br)ccc32)Nc2ccccc21`, the residual activity stood at 105%.
Consider `O=C(O)/C=C/c1cc(Br)c(Br)c(Br)c1Br`, for which the residual activity stood at 68.7%.

The next test addresses LRRK2 (human) (UniProt Q5S007). The description is as above. The note with it: compound 0.5 µM; ATP 10 µM.
In the case of `CCN(CC)CCCCN1c2ccccc2Oc2ccc(Cl)cc21`, the residual activity came out at 115%.
On to `CC(=O)O/N=C1\C(=C2\C(=O)Nc3cc(Br)ccc32)Nc2ccccc21`, for which the residual activity turned out to be 87.6%.
For `O=C(O)/C=C/c1cc(Br)c(Br)c(Br)c1Br`, the residual activity was 87.6%.

Another test concerns the target CDC42BPA (human) (UniProt Q5VT25). The test is described as above. To be noted: compound 0.5 µM; ATP 10 µM.
In the case of `CCN(CC)CCCCN1c2ccccc2Oc2ccc(Cl)cc21`, the residual activity worked out at 111%.
The same measure, in the same setting: with `CC(=O)O/N=C1\C(=C2\C(=O)Nc3cc(Br)ccc32)Nc2ccccc21` the figure was 85.8%; with `O=C(O)/C=C/c1cc(Br)c(Br)c(Br)c1Br`, 98.5%.

The target in a further test is TAOK2 (human) (UniProt Q9UL54). Described as above. The note with it: compound 0.5 µM; ATP 10 µM.
For the compound `CCN(CC)CCCCN1c2ccccc2Oc2ccc(Cl)cc21`, the residual activity came to 95.3%.
With `CC(=O)O/N=C1\C(=C2\C(=O)Nc3cc(Br)ccc32)Nc2ccccc21`, the residual activity stood at 84.4%.
Same read-out and setting: with `O=C(O)/C=C/c1cc(Br)c(Br)c(Br)c1Br` the figure was 88.9%.

The target of the next test is STK4 (human) (UniProt Q13043). The description is as above. To be noted: compound 0.5 µM; ATP 10 µM.
Take `CCN(CC)CCCCN1c2ccccc2Oc2ccc(Cl)cc21`: the residual activity turned out to be 98.9%.
With `CC(=O)O/N=C1\C(=C2\C(=O)Nc3cc(Br)ccc32)Nc2ccccc21`, the residual activity came out at 54.2%.
Consider `O=C(O)/C=C/c1cc(Br)c(Br)c(Br)c1Br`, for which the residual activity worked out at 102%.

A further test concerns the target MAPKAPK5 (human) (UniProt Q8IW41). The description is as above. To be noted: compound 0.5 µM; ATP 10 µM.
Turning to `CCN(CC)CCCCN1c2ccccc2Oc2ccc(Cl)cc21`, the residual activity came to 95.9%.
For `CC(=O)O/N=C1\C(=C2\C(=O)Nc3cc(Br)ccc32)Nc2ccccc21`, the residual activity was found to be 94.9%.
For `O=C(O)/C=C/c1cc(Br)c(Br)c(Br)c1Br`, the residual activity turned out to be 72.6%.

The next test has as its target MLTK (human) (UniProt Q9NYL2). Described as above. To be noted: compound 0.5 µM; ATP 10 µM.
`CCN(CC)CCCCN1c2ccccc2Oc2ccc(Cl)cc21`: the residual activity was determined as 94.4%.
For the compound `CC(=O)O/N=C1\C(=C2\C(=O)Nc3cc(Br)ccc32)Nc2ccccc21`, the residual activity was 77%.
`O=C(O)/C=C/c1cc(Br)c(Br)c(Br)c1Br`: the residual activity was determined as 89.4%.

A further test deals with MYLK2 (human) (UniProt Q9H1R3). The description is as above. To be noted: compound 0.5 µM; ATP 10 µM.
With `CCN(CC)CCCCN1c2ccccc2Oc2ccc(Cl)cc21`, the residual activity turned out to be 104%.
As for `CC(=O)O/N=C1\C(=C2\C(=O)Nc3cc(Br)ccc32)Nc2ccccc21`, the residual activity is 55%.
In the case of `O=C(O)/C=C/c1cc(Br)c(Br)c(Br)c1Br`, the residual activity stood at 86.8%.

The target of a further test is CDK6 CCND1 (human) (UniProt Q00534+P24385). The test is described as above. The note with it: compound 0.5 µM; ATP 10 µM.
As to `CCN(CC)CCCCN1c2ccccc2Oc2ccc(Cl)cc21`, the residual activity came out at 98%.
Consider `CC(=O)O/N=C1\C(=C2\C(=O)Nc3cc(Br)ccc32)Nc2ccccc21`, for which the residual activity worked out at 53.2%.
On the same count and under the same terms, next, `O=C(O)/C=C/c1cc(Br)c(Br)c(Br)c1Br`: 102%.

The target of a further test is MARK1 (human) (UniProt Q9P0L2). The test is described as above. To be noted: compound 0.5 µM; ATP 10 µM.
In the case of `CCN(CC)CCCCN1c2ccccc2Oc2ccc(Cl)cc21`, the residual activity amounted to 100%.
As to `CC(=O)O/N=C1\C(=C2\C(=O)Nc3cc(Br)ccc32)Nc2ccccc21`, the residual activity is 76%.
On to `O=C(O)/C=C/c1cc(Br)c(Br)c(Br)c1Br`, for which the residual activity came to 93.7%.

Another test concerns the target YES1 (human) (UniProt P07947). Described as above. To be noted: compound 0.5 µM; ATP 10 µM.
As for `CCN(CC)CCCCN1c2ccccc2Oc2ccc(Cl)cc21`, the residual activity came to 88.5%.
On the same count and under the same terms, with `CC(=O)O/N=C1\C(=C2\C(=O)Nc3cc(Br)ccc32)Nc2ccccc21` the figure was 46.4%.
Turning to `O=C(O)/C=C/c1cc(Br)c(Br)c(Br)c1Br`, the residual activity was determined as 96.9%.

A further test has as its target NLK (human) (UniProt Q9UBE8). The description is as above. To be noted: compound 0.5 µM; ATP 10 µM.
In the case of `CCN(CC)CCCCN1c2ccccc2Oc2ccc(Cl)cc21`, the residual activity was determined as 101%.
On the same count and under the same terms, with `CC(=O)O/N=C1\C(=C2\C(=O)Nc3cc(Br)ccc32)Nc2ccccc21` the figure was 106%; with `O=C(O)/C=C/c1cc(Br)c(Br)c(Br)c1Br`, 99.1%.

The target of the next test is AKT2 (human) (UniProt P31751). The test is described as above. The note with it: compound 0.5 µM; ATP 10 µM.
For the compound `CCN(CC)CCCCN1c2ccccc2Oc2ccc(Cl)cc21`, the residual activity is 101%.
On to `CC(=O)O/N=C1\C(=C2\C(=O)Nc3cc(Br)ccc32)Nc2ccccc21`, for which the residual activity was 113%.
Same read-out and setting: next, `O=C(O)/C=C/c1cc(Br)c(Br)c(Br)c1Br`: 97.5%.
